Assay results published in patent US20170136140A1, “Antimicrobial Compositions Utilizing Silver and Oxygen, Process for Making, and Method of Using the Same” (Avent, Inc., priority 2014, published 2017).
Like-named read-outs stand apart in the source and are kept apart here.

Experiments:
human fibroblasts = details: cited from earlier work
[1] = tested on: Methicillin-resistant Staphylococcus aureus—MRSA (Clinical isolate); assay: Antimicrobial challenge test (time-kill) in 95% TSB, concentrated media and silver; assay type: cell-based; details: throughout the duration of the testing (3 and 6 hours), 100% oxygen headspace, no silver
Protocol: In the first sample, 10 ml of 95% tryptic soy broth (TSB) was inoculated with approximately 10^5 CFU of Methicillin-resistant Staphylococcus aureus—MRSA (Clinical isolate). […] Each test sample was then incubated at 37° C.; the level of surviving organisms was tested after 3 hours and 6 hours for each.
The challenge organism (MRSA Clinical isolate) was prepared by culturing in Soybean-Casein digest broth (TSB) at 35° C. for 18 to 24 hrs to an approximate concentration of 1.8×10^9 CFU per ml. • 2. For the challenge tests: 0.01 ml of the stock culture was added into a 50 ml screw top test tube and then diluted to 10 ml with 95% TSB broth to a final concentration of 1.8×10^6 CFU/ml. • 3. […] Silver Challenge test: To a test tube prepared as described from step 2; 100 μl of 30% wt/wt AgNO3 was added and vortexed to mix for a final concentration of 0.3% AgNO3. • b. Silver+O2 challenge test: To a test tube prepared as described from step 2; 100 μl of 30% wt/wt AgNO3 solution was added and vortexed to mix for a final concentration of 0.3% AgNO3. […] The samples were then incubated at 37° C. for both 3 and 6 hours. • d. At the 3 and 6 hour time point the samples were plated at different dilutions (10^−1, 10^−3, and 10^−5) to enumerate the surviving colonies. • i. The 3 hour samples was re-purged with 02 gas and returned to the incubating oven for an additional 3 hours. • ii. […]

[2] = tested on: Pseudomonas aeruginosa (ATCC 9027); assay type: cell-based; details: 37° C., 0.03 ppm silver (from silver nitrate), 5% TSB, based on time zero plate count
Protocol: Each test sample was then incubated at 37° C.; the level of surviving organisms was tested after 3 hours and 6 hours for each.
The challenge organism (Pseudomonas aeruginosa ATCC 9027) was prepared by culturing in Soybean-Casein digest broth (TSB) at 35° C. for 18 to 24 hrs to an approximate concentration of 1.8×10^8 CFU per ml. • 2. For the challenge tests: 0.01 ml of the stock culture was added into a 50 ml screw top test tube and then diluted to 10 ml with 5% TSB broth to a final concentration of 1.8×10^5 CFU/ml. • 3. […] Silver Challenge test: To a test tube prepared as described from step 2; 100 μl of 3 ppm AgNO3 was added and vortexed to mix for a final concentration of 0.03 ppm AgNO3. • b. Silver+O2 challenge test: To a test tube prepared as described from step 2; 100 μl of 3 ppm Ag+ (from AgNO3) solution was added and vortexed to mix for a final concentration of 0.03 ppm AgNO3. […] The samples were then incubated at 37° C. for both 3 and 6 hours. • d. At the 3 and 6 hour time point the samples were plated at different dilutions (10^−1, 10^−3, and 10^−5) to enumerate the surviving colonies. • i. The 3 hour samples were re-purged with 02 gas and returned to the incubating oven for an additional 3 hours. • ii. The media used for plating was Trypticase soy agar (TSA). • e. The plates were incubated for 2 to 3 days before counting. • f. […]

In the case of [Ag+] [Ionic silver], the “concentration cytotoxic to human fibroblasts” value (human fibroblasts) is listed as 1 parts per million.

In the case of O=O [Sample 4, oxygen gas], the “change in the amount of colony forming units” value [1] is reported as “increase”.

For silver nitrate [Sample 1], the “log reduction in the number of CFU” value ([2]; after 3 hours) was 2 log and the “log reduction in the number of CFU” value ([2]; after 6 hours) was 3 log.
